The values below are quoted from earlier work in patent publication US6258550A, “Polypeptides that include conformation-constraining groups which flank a protein-protein interaction site” (Virginia Commonwealth University, priority 1999, dated 2001).

Where a SMILES comes first, the peptide text is derived from it.

The series relates to receptors of sweet tasting papillae. Conditions: comparison sweetener.

For the molecule `COC(=O)[C@H](Cc1ccccc1)NC(=O)[C@@H](N)CC(=O)O` [aspartame] (H-Asp-Phe-OMe), the “Sweetness relative to sugar” value is on record as 160 times sweeter than sugar.
